Experiments:
Ba/F3_KRAS^G12D cells = Ba/F3_KRAS^G12D cells (Homo sapiens, UniProt P01116, G12D, cells depend on it); experiment: Ba/F3 KRAS^G12D cell proliferation assay (cell-titer Glo); type: cell-based; conditions: cell growth inhibition, treated with the compounds for 3 days, read-out: BaF3_KRAS^G12D IC50
Method: Cells were seeded at a density of 5×10^3 per well into 96-well plate and incubated overnight. Serial diluted compounds were added to each well. Cells were treated with the compounds for 3 days, after which cell-titer Glo reagent (Promega #G7572) was used to assess cell proliferation. The luminescence signal was then collected on Tecan Spark plate reader. […] Cell growth inhibition of IC50 is calculated with the equation of Y=Bottom+(Top−Bottom)/(1+10^((LogIC50−X)*HillSlope))

[1] = target: recombinant human KRAS^G12D protein (Homo sapiens, UniProt P01116, G12D); experiment: Temperature-dependent Fluorescence (TdF) KRAS^G12D protein binding assay; conditions: 6 μM KRAS^G12D Protein, 10 μM compound, Sypro Orange; Kd calculated from fluorescent shift
Sequence of recombinant human KRAS^G12D protein (P01116 1-188 isoform P01116-2 G12D): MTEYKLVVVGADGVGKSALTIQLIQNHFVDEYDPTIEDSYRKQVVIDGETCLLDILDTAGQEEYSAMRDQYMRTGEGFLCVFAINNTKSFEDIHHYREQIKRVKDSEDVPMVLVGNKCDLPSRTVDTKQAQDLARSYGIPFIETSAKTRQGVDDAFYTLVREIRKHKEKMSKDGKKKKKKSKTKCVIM
Method: The TdF assay was conducted in the 96-well-based real-time fluorescence plate reader (ABI 7500 or Roche LightCycler 480). Fluorescent dye Sypro Orange (Sigma) was used to monitor the protein folding-unfolding transition. Protein-compound binding was gauged by the shift in the unfolding transition temperature (ΔTm) acquired with and without compound. […] The sample plate was heated from 30° C. to 95° C. with a thermal ramping rate of […], taking a fluorescence reading every 0.4° C. using a CY3 channel matching the excitation and emission wavelengths of Sypro Orange (λ ex 470 nm; λ em 570 nm). Binding affinity (Kd value) was calculated based on the degree of fluorescent shift of the protein with and without compound.

Sequence of Ba/F3_KRAS^G12D cells (P01116 whole entry G12D): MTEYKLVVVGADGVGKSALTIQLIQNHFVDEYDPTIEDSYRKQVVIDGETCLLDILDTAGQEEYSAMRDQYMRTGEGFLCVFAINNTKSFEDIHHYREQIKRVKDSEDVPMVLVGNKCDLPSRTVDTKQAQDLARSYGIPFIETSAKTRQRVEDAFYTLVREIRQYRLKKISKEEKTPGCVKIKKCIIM

| SMILES | GI50 (Ba/F3_KRAS^G12D cells) [µM] | Kd [1] [µM] |
| --- | --- | --- |
| O=c1cc2c(N3CC4CCC(C3)N4)nc(OCC34CCCN3CCC4)nc2cn1-c1cc(O)cc2cccc(Cl)c12 [Compound 111] | > 5 | > 5 |
| O=c1c2nc(OCC34CCCN3CCC4)nc(N3CC4CCC(C3)N4)c2ccn1-c1cccc2ccccc12 [Compound 108] | > 5 | > 5 |
| CC1(O)CN2CCC[C@@]2(COc2nc(N3CC4CCC(C3)N4)c3cnc(-c4cc(O)cc5cccc(Cl)c45)c(F)c3n2)C1 (stereo partly shown) [Compound 96] | > 5 | ≤ 0.5 |
| CN1CCC[C@H]1COc1nc(N2CCNCC2)c2cnc(-c3ccc(F)c4sc(N)nc34)c(F)c2n1 [Compound 73] | > 5 | ≤ 0.5 |
| NC(=O)N1CCN(c2nc(OC[C@@]34CCCN3C[C@H](F)C4)nc3c(F)c(-c4cc(O)cc5cccc(Cl)c45)ncc23)CC1 [Compound 77] | > 5 | > 5 |
| Oc1cc(-c2ncc3c(N4CC5CCC(C4)N5)nc(OCC45CCCN4CCC5)cc3n2)c2c(Cl)cccc2c1 [Compound 51] | > 5 | > 5 |
| O=c1cc2c(N3CC4CCC(C3)N4)nc(OCC34CCCN3CCC4)nc2cn1-c1cc(O)cc2ccccc12 [Compound 109] | > 5 | > 5 |
| CN(C)CCOc1nc(N2CCNCC2)c2cc(F)c(-c3ccccc3F)nc2c1-c1cccnc1C1CC1 [Compound 24] | 0.5 to 5 | > 5 |
| CN(C)CCCOc1nc(N2CC3CCC(C2)N3)c2cnc(-c3cccc4ccccc34)nc2c1Cl [Compound 25] | 0.5 to 5 | > 5 |
| CN(C)CCCn1c(=O)nc(N2CC3CCC(C2)N3)c2cnc(-c3cccc4cccc(Cl)c34)c(F)c21 [Compound 17] | > 5 | > 5 |
| Nc1cccc(F)c1-c1ncc2c(N3CC4CCC(C3)N4)nc(OCC34CCCN3CCC4)cc2n1 [Compound 26] | > 5 | > 5 |
| Cc1nc(-c2cc(O)cc3cccc(CCC#N)c23)c(F)c2nc(OC[C@@]34CCCN3C[C@H](F)C4)nc(N3CC4CCC(C3)N4)c12 [Compound 119] | > 5 | 0.5 to 5 |
| CN(C)CCCn1c(=O)nc(N2CC3CCC(C2)N3)c2cc(F)c(-c3cccc4cccc(Cl)c34)nc21 [Compound 19] | > 5 | > 5 |

Further lines, results first:

| GI50 (Ba/F3_KRAS^G12D cells) [µM] | Kd [1] [µM] | SMILES |
| --- | --- | --- |
| 0.5 to 5 | > 5 | Fc1ccccc1-c1nc2c(-c3cccnc3C3CC3)c(OCC34CCCN3CCC4)nc(N3CC4CCC(C3)N4)c2cc1F [Compound 28] |
| 0.5 to 5 | > 5 | Fc1c(-c2cccc3cccc(Cl)c23)ncc2c(OCC34CCCN3CCC4)cc(N3CCNCC3)nc12 [Compound 69] |
| 0.5 to 5 | > 5 | C[C@H]1CNCCN1c1nc(OCCN(C)C)c(-c2cccnc2C2CC2)c2nc(-c3cccc4ccccc34)c(F)cc12 [Compound 29] |
| < 0.5 | ≤ 0.5 | CCc1cccc2cc(O)cc(-c3nc(OC)c4c(N5CC6CCC(C5)N6)nc(OC[C@@]56CCCN5C[C@H](F)C6)nc4c3F)c12 [Compound 125] |
| 0.5 to 5 | > 5 | c1ccc2c(-c3ncc4c(N5CC6CCC(C5)N6)cc(OCC56CCCN5CCC6)nc4n3)cccc2c1 [Compound 66] |
| < 0.5 | > 5 | CN1CCC[C@@H]1COc1nc(-c2cccc3cccc(Cl)c23)c(F)c2nc(N3CCNCC3)ccc12 [Compound 53] |
| 0.5 to 5 | 0.5 to 5 | Oc1cc(-c2cc3nc(OC[C@@]45CCCN4C[C@H](F)C5)nc(N4CC5CCC(C4)N5)c3nn2)c2ccccc2c1 [Compound 84] |
| < 0.5 | ≤ 0.5 | CCc1cccc2cc(O)cc(-c3nc(C(F)F)c4c(N5CC6CCC(C5)N6)nc(OC[C@@]56CCCN5C[C@H](F)C6)nc4c3F)c12 [Compound 136] |
| 0.5 to 5 | > 5 | C[C@H]1CNCCN1c1nc(OCCN(C)C)cc2nc(-c3ccccc3F)c(F)cc12 [Compound 13] |
| < 0.5 | ≤ 0.5 | CCc1cccc2cc(O)cc(-c3nc(Cl)c4c(N5CC6CCC(C5)N6)nc(OC[C@@]56CCCN5C[C@H](F)C6)nc4c3F)c12 [Compound 113] |

From US20230357233A1, “HETEROARYL COMPOUNDS, PREPARATION METHODS AND USES THEREOF” (INVENTISBIO CO., LTD., priority 2020, published 2023)
